Consider 23 compounds from patent US6340704B1, “Cell differentiation inducing amide derivatives, their production and use” (Takeda Chemical Industries, Ltd., priority 1997, dated 2002).

Where a name gives a salt, the structure may show the parent alone. Marks after values point to notes of the source that are not given here.

Data set [1] has as its system Mouse-derived MC3T3-E1 osteoblast cells. In words: Induction of alkaline phosphatase (ALP) production in mouse osteoblastic cells, with or without 3 ng/ml BMP-4/7 heterodimer. The class given is cell-based. The conditions noted are these: 72 hours; for ALP Activity (1000 × A405 ± SD) BMP Addition: medium with 3 ng/ml BMP-4/7 heterodimer; for ALP Activity (1000 × A405 ± SD) BMP Non-Addition: no BMP. How it is done: Induction of Alkaline Phosphatase (ALP) Production in Mouse Osteoblastic Cells
Mouse-derived MC3T3-E1 osteoblast cells were seeded in a 96-well microtiter plate of α-minimum essential medium containing FCS (fetal calf serum) (8000 cells/well). After two days when the growth had become confluent, the test substance diluted to various concentrations in Table 1 with the medium either containing or not containing 3 ng/ml of BMP-4/7 heterodimer (described in Japanese Patent Application No. 111255/1994) was added, and the microtiter plate was further incubated for 72 hours. The plate was washed once with a physiological saline solution, followed by addition of a substrate solution. The resulting mixture was incubated at room temperature for 15 minutes, followed by addition of 0.05N NaOH to terminate the reaction. The absorbance at 405 nm was measured.

Broadly, the melting point is the temperature, or range, at which the solid turns liquid. Regarding `CN(C)CCCNC(=O)c1cc(-c2ccc3c(c2)OCO3)c2c3c(ccc2c1)OCO3` (as salt: hydrochloride) [Example 19, N-(3-Dimethylaminopropyl)-9-(1,3-benzodioxole-5-yl)-naphtho [1,2-d]-1,3-dioxole-7-carboxamide hydrochloride], the melting point was in the range of 233 to 240 °C.
On the same count and under the same terms, the figure for `CNC(=O)c1cc2ccc3c(c2c(-c2ccc(OC(F)(F)F)cc2)c1CO)OCO3` [Example 24, N-Methyl-9-(4-trifluoromethoxyphenyl)-8-hydroxymethylnaphtho[1,2-d]-1,3-dioxol-7-carboxamide] is 195 to 197 °C; for `CN(C)C(=O)c1cc(-c2ccc3c(c2)OCO3)c2c3c(ccc2c1)OCO3` [Example 16, N,N-Dimethyl-9-(1,3,-benzodioxole-5-yl)-naphtho[1,2-d]-1,3,-dioxole-7-carboxamide] it is 160 to 161 °C; for `CNC(=O)c1nc2ccc(C)cc2c(-c2ccccc2)c1CO` [Example 9, N-methyl-(3-hydroxmethyl-6-methyl-4-phenylquinoline)-2-carboxamide] it is 136 to 137 °C.
Turning to `CNC(=O)c1cc2ccc3c(c2c(-c2ccc(F)cc2)c1CO)OCO3` [Example 5, N-Methyl-9-(4-fluorophenyl)-8-hydroxymethyl-naphtho[1,2-d]-1,3-dioxole-7-carboxamide], the melting point lay within 210 to 213 °C. Further, in data set [1] (compound 0.01 μM), the “ALP Activity (1000 × A405 ± SD) BMP Addition” value is 170 ± 20 1000 × A405 and the “ALP Activity (1000 × A405 ± SD) BMP Non-Addition” value is 49 ± 1 1000 × A405. In data set [1] (compound 0.1 μM), the “ALP Activity (1000 × A405 ± SD) BMP Addition” value is 237 ± 14* 1000 × A405 and the “ALP Activity (1000 × A405 ± SD) BMP Non-Addition” value is given as 62 ± 3* 1000 × A405. In data set [1] (compound 1 μM), the “ALP Activity (1000 × A405 ± SD) BMP Addition” value is on record as 431 ± 26* 1000 × A405 and the “ALP Activity (1000 × A405 ± SD) BMP Non-Addition” value is listed as 157 ± 11* 1000 × A405.
In the case of `Cc1c(C(N)=O)cc(-c2ccc3c(c2)OCO3)c2c3c(ccc12)OCO3` [Example 13, 9-(1,3-Benzodioxole-5-yl)-6-methyl-naphto[1,2-d]-1,3-dioxole-7-carboxamide], the melting point was 237 to 239 °C.
Take `CNC(=O)c1cc2ccc3c(c2c(-c2ccc4ccccc4c2)c1CO)OCO3` [Example 4, N-Methyl-9-(2-naphthyl)-8-hydroxymethyl-naphtho[1,2-d]-1,3-dioxole-7-carboxamide]: the melting point lay within 207 to 210 °C. Besides, in data set [1] (compound 0.01 μM), the “ALP Activity (1000 × A405 ± SD) BMP Addition” value is 301 ± 8 1000 × A405 and the “ALP Activity (1000 × A405 ± SD) BMP Non-Addition” value was 86 ± 3 1000 × A405. Also, in data set [1] (compound 0.1 μM), the “ALP Activity (1000 × A405 ± SD) BMP Addition” value is on record as 389 ± 25* 1000 × A405 and the “ALP Activity (1000 × A405 ± SD) BMP Non-Addition” value is recorded as 108 ± 7* 1000 × A405. In addition, in data set [1] (compound 1 μM), the “ALP Activity (1000 × A405 ± SD) BMP Addition” value is listed as 554 ± 49* 1000 × A405 and the “ALP Activity (1000 × A405 ± SD) BMP Non-Addition” value is listed as 168 ± 4* 1000 × A405.
Take `Cc1c(C(N)=O)nc2ccc3c(c2c1-c1ccc2c(c1)OCO2)OCO3` [Example 22, 9-(1,3-Benzodioxole-5-yl)-8-methyl-1,3-dioxole[4,4-f]quinoline-7-carboxamide]: the “ALP Activity (1000 × A405 ± SD) BMP Addition” value in data set [1] (compound 0.01 μM) is reported as 187 ± 3 1000 × A405; in data set [1] (compound 0.1 μM), 226 ± 6* 1000 × A405; in data set [1] (compound 1 μM), 326 ± 18* 1000 × A405. Moreover, the “ALP Activity (1000 × A405 ± SD) BMP Non-Addition” value was 135 ± 8* 1000 × A405 in data set [1] (compound 0.01 μM), 149 ± 11* 1000 × A405 in data set [1] (compound 0.1 μM) and 190 ± 10* 1000 × A405 in data set [1] (compound 1 μM).
Turning to `CNC(=O)c1cc2ccc3c(c2c(-c2ccc(OC)cc2)c1CO)OCO3` [Example 2, N-Methyl-9-(4-methoxyphenyl)-8-hydroxymethyl-naphtho[1,2-d]-1,3-dioxole-7-carboxamide], the melting point lay within 187 to 190 °C. In data set [1] (compound 0.01 μM), the “ALP Activity (1000 × A405 ± SD) BMP Addition” value is listed as 323 ± 13 1000 × A405 and the “ALP Activity (1000 × A405 ± SD) BMP Non-Addition” value was 80 ± 2 1000 × A405. Further, in data set [1] (compound 0.1 μM), the “ALP Activity (1000 × A405 ± SD) BMP Addition” value is 354 ± 15* 1000 × A405 and the “ALP Activity (1000 × A405 ± SD) BMP Non-Addition” value is 95 ± 7* 1000 × A405. In data set [1] (compound 1 μM), the “ALP Activity (1000 × A405 ± SD) BMP Addition” value is recorded as 478 ± 17* 1000 × A405 and the “ALP Activity (1000 × A405 ± SD) BMP Non-Addition” value is 162 ± 18* 1000 × A405.
Take `CNC(=O)c1cc2cc3c(cc2c(-c2ccc4c(c2)OCO4)c1CO)OCO3` [Example 7, N-Methyl-(1,3-benzodioxole-5-yl)-7-hydroxymethyl-naphto[2,3-d]-1,3-dioxole-6-carboxamide]: the melting point lay within 222 to 224 °C.
For the compound `NC(=O)c1cc(-c2ccc(OC(F)(F)F)cc2)c2c3c(ccc2c1)OCO3` [Example 25, 9-(4-Trifluoromethoxyphenyl)naphtho[1,2-d]-1,3-dioxol-7-carboxamide], the melting point fell in the range of 188 to 190 °C.
`CNC(=O)c1cc2ccc3c(c2c(-c2ccc4c(c2)OCO4)c1CO)OCO3` [Example 1, N-Methyl-9-(1,3-benzodioxole-5-yl)-8-hydroxymethylnaphtho[1,2-d]-1,3-dioxole-7-carboxamide]: the melting point fell in the range of 233 to 235 °C. Also, in data set [1] (compound 0.01 μM), the “ALP Activity (1000 × A405 ± SD) BMP Addition” value is 193 ± 15 1000 × A405 and the “ALP Activity (1000 × A405 ± SD) BMP Non-Addition” value is 50 ± 5 1000 × A405. In data set [1] (compound 0.1 μM), the “ALP Activity (1000 × A405 ± SD) BMP Addition” value is 213 ± 5* 1000 × A405 and the “ALP Activity (1000 × A405 ± SD) BMP Non-Addition” value is on record as 58 ± 5* 1000 × A405. For the same compound, in data set [1] (compound 1 μM), the “ALP Activity (1000 × A405 ± SD) BMP Addition” value is recorded as 386 ± 30* 1000 × A405 and the “ALP Activity (1000 × A405 ± SD) BMP Non-Addition” value was 102 ± 5* 1000 × A405.
`CNC(=O)c1cc(-c2ccc(F)cc2)c2c3c(ccc2n1)OCO3` [Example 46, 9-(4-Fluorophenyl)-N-methyl-1,3-dioxolo[4,5-F]quinoline-7-carboxamide]: the melting point is 233 to 235 °C.
Still for that read-out and setting: the figure for `CNC(=O)c1nc2ccc3c(c2c(-c2ccc4c(c2)OCO4)c1C)OCO3` [Example 23, N-methyl-9-(1,3-benzodioxole-5yl)-8-methyl-1,3-dioxolo [4,5-f]quinoline-7-carboxamide] is 141 to 146 °C.
Regarding `NC(=O)c1cc(-c2ccc(C(F)(F)F)cc2)c2c3c(ccc2c1)OCO3` [Example 12, 9-(4-Trifluromethylphenyl)-naphto[1,2-d]-1,3-dixole-7-carboxamide], the melting point is 207 to 209 °C.
`NC(=O)c1nc2ccc3c(c2c(-c2ccc4c(c2)OCO4)c1CO)OCO3` [Example 8, 9(1,3-Benzodioxole-5-yl)-8hydroxymethyl-1,3-dioxolo[4,5-f]quinoline-7-carboxamide]: the “ALP Activity (1000 × A405 ± SD) BMP Addition” value in data set [1] (compound 0.01 μM) is 426 ± 28 1000 × A405; in data set [1] (compound 0.1 μM) it was 477 ± 15* 1000 × A405; in data set [1] (compound 1 μM), 570 ± 63* 1000 × A405. For the same compound, the “ALP Activity (1000 × A405 ± SD) BMP Non-Addition” value in data set [1] (compound 0.01 μM) is given as 105 ± 22 1000 × A405; in data set [1] (compound 0.1 μM), 134 ± 12 1000 × A405; in data set [1] (compound 1 μM) it was 186 ± 26 1000 × A405.
Compound `NC(=O)c1cc(-c2ccc3c(c2)OCO3)c2c3c(ccc2c1)OCO3` [Example 14, 9-(1,3-Benzodioxole-5-yl)-naphtho[1,2-d]-1,3-dioxole-7-carboxamide] had a melting point of 267 to 269 °C.
The compound `CNC(=O)c1cc2ccc3c(c2c(-c2ccc(C)cc2)c1CO)OCO3` [Example 6, N-Methyl-9-(4-methylphenyl)-8-hydroxymethyl-naphtho[1,2-d]-1,3-dioxole-7-carboxamide] yielded a melting point of 210 to 212 °C. Also, in data set [1] (compound 0.01 μM), the “ALP Activity (1000 × A405 ± SD) BMP Addition” value was 177 ± 14 1000 × A405 and the “ALP Activity (1000 × A405 ± SD) BMP Non-Addition” value was 51 ± 2 1000 × A405. In data set [1] (compound 0.1 μM), the “ALP Activity (1000 × A405 ± SD) BMP Addition” value was 248 ± 6* 1000 × A405 and the “ALP Activity (1000 × A405 ± SD) BMP Non-Addition” value is 74 ± 1* 1000 × A405. Also, in data set [1] (compound 1 μM), the “ALP Activity (1000 × A405 ± SD) BMP Addition” value is reported as 459 ± 35* 1000 × A405 and the “ALP Activity (1000 × A405 ± SD) BMP Non-Addition” value was 168 ± 1* 1000 × A405.
`O=C(c1cc(-c2ccc(F)cc2)c2c3c(ccc2n1)OCO3)N1CCN(Cc2ccccc2)CC1` [Example 48, N-Benzyl-N-[9-(4-fluorophenyl)-1,3-dioxolo[4,5-f]quinoline-7-carbonyl]piperazine]: the melting point is 147 to 148 °C.
Same read-out and setting: then `CNC(=O)c1cc(-c2ccc3c(c2)OCO3)c2c3c(ccc2c1)OCO3` [Example 15, N-Methyl-9-(1,3-benzodioxole-5-yl)-naphtho;[1,2,-d]-1,3-dioxole-7-carboxamide], with 206 to 208 °C; and `COc1ccc(-c2cc(C(N)=O)cc3ccc4c(c23)OCO4)cc1` [Example 11, 9(4-Methoxyphenyl)-naphtho[1,2,-d]-1,3,-dioxole-7-carboxamide], with 187 to 189 °C.
`CNC(=O)c1nc2ccc(C)cc2c(-c2ccc(F)cc2F)c1CO` [Example 10, N-Methyl-[3-hydroxymethyl-6-methyl-4-(2,4-difluorophenyl)quinoline]-2-carboxamide] gave a melting point of 140 to 141 °C.
The compound `CNC(=O)c1cc2ccc3c(c2c(-c2ccc(Cl)cc2)c1CO)OCO3` [Example 3, N-Methyl-9-(4-chlorophenyl)-8-hydroxymethyl-naphtho[1,2-d]-1,3-dioxole-7-carboxamide] had a melting point of 202 to 204 °C.
